Measured values taken from US11795171B2, “Pyrrolotriazinones and imidazotriazinones as ubiquitin-specific protease 7 inhibitors” (Valo Health, Inc., priority 2014, dated 2023).
pIC50: −log10 of the molar value.

biological target: USP7 (Homo sapiens (Human), UniProt Q93009); assay: USP7 Assay B (Ubitquin-Rhodamine110 Assay); assay type: biochemical; details: Ub-Rh110 substrate 25 nM
Sequence (Q93009 208-1102): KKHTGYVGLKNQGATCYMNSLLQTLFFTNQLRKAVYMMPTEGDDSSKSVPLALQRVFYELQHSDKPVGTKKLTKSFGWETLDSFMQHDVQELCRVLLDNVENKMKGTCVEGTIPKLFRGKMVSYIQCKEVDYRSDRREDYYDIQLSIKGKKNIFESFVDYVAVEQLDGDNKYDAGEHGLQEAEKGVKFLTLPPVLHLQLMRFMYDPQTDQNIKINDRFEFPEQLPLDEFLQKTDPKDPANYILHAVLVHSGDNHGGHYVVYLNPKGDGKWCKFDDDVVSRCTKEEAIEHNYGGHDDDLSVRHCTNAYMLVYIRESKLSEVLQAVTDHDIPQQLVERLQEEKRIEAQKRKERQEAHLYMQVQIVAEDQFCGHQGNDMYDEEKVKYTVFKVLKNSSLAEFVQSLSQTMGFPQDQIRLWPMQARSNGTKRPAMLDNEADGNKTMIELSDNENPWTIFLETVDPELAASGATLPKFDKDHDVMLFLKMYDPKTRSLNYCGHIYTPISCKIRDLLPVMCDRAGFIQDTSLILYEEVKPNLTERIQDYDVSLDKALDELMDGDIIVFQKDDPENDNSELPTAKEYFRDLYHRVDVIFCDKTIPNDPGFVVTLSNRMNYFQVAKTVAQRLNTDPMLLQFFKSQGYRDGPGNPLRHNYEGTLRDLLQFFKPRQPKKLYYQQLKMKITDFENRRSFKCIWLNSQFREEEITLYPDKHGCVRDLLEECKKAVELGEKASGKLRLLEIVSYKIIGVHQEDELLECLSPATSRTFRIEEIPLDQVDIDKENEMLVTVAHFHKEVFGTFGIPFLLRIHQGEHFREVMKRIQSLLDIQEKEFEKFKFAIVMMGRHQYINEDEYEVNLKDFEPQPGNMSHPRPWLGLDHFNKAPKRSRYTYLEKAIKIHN

Structure (SMILES) | pIC50
O=C(NCc1ccc(Cl)cc1)Nc1cc2c(=O)n(CC3(O)CCN(C(=O)C4CC4)CC3)cnn2c1 [Compound I-91, 1-(4-chlorobenzyl)-3-(3-((1-(cyclopropanecarbonyl)-4-hydroxypiperidin-4-yl)methyl)-4-oxo-3,4-dihydropyrrolo[2,1-f][1,2,4]triazin-6-yl)urea] | < 5.00
Cc1ccc(CNC(=O)Nc2cc3c(=O)n(CC4(O)CCN(C(=O)C5CC5)CC4)cnn3c2)cc1 [Compound I-92, 1-(3-((1-(cyclopropanecarbonyl)-4-hydroxypiperidin-4-yl)methyl)-4-oxo-3,4-dihydropyrrolo[2,1-f][1,2,4]triazin-6-yl)-3-(4-methylbenzyl)urea] | < 5.00
O=C(Nc1cc(F)cc(F)c1)Nc1cc2c(=O)n(CC3(O)CCN(C(=O)C4CC4)CC3)cnn2c1 [Compound I-93, 1-(3-((1-(cyclopropanecarbonyl)-4-hydroxypiperidin-4-yl)methyl)-4-oxo-3,4-dihydropyrrolo[2,1-f][1,2,4]triazin-6-yl)-3-(3,5-difluorophenyl)urea] | < 5.00
O=C(NCc1ccccc1F)Nc1cc2c(=O)n(CC3(O)CCN(C(=O)C4CC4)CC3)cnn2c1 [Compound I-94, 1-(3-((1-(cyclopropanecarbonyl)-4-hydroxypiperidin-4-yl)methyl)-4-oxo-3,4-dihydropyrrolo[2,1-f][1,2,4]triazin-6-yl)-3-(2-fluorobenzyl)urea] | < 5.00
C[C@@H](NC(=O)Nc1cc2c(=O)n(CC3(O)CCN(C(=O)C4CC4)CC3)cnn2c1)c1ccccc1 [Compound I-95, (R)-1-(3-((1-(cyclopropanecarbonyl)-4-hydroxypiperidin-4-yl)methyl)-4-oxo-3,4-dihydropyrrolo[2,1-f][1,2,4]triazin-6-yl)-3-(1-phenylethyl)urea] | < 5.00
O=C(Nc1cccc(F)c1)Nc1cc2c(=O)n(CC3(O)CCN(C(=O)C4CC4)CC3)cnn2c1 [Compound I-96, 1-(3-((1-(cyclopropanecarbonyl)-4-hydroxypiperidin-4-yl)methyl)-4-oxo-3,4-dihydropyrrolo[2,1-f][1,2,4]triazin-6-yl)-3-(3-fluorophenyl)urea] | < 5.00
Cc1c(F)cccc1NC(=O)Nc1cc2c(=O)n(CC3(O)CCN(C(=O)C4CC4)CC3)cnn2c1 [Compound I-97, 1-(3-((1-(cyclopropanecarbonyl)-4-hydroxypiperidin-4-yl)methyl)-4-oxo-3,4-dihydropyrrolo[2,1-f][1,2,4]triazin-6-yl)-3-(3-fluoro-2-methylphenyl)urea] | < 5.00
Cc1cccc(NC(=O)Nc2cc3c(=O)n(CC4(O)CCN(C(=O)C5CC5)CC4)cnn3c2)c1C [Compound I-98, 1-(3-((1-(cyclopropanecarbonyl)-4-hydroxypiperidin-4-yl)methyl)-4-oxo-3,4-dihydropyrrolo[2,1-f][1,2,4]triazin-6-yl)-3-(2,3-dimethylphenyl)urea] | < 5.00
Cc1ccc(NC(=O)Nc2cc3c(=O)n(CC4(O)CCN(C(=O)C5CC5)CC4)cnn3c2)c(C)c1 [Compound I-99, 1-(3-((1-(cyclopropanecarbonyl)-4-hydroxypiperidin-4-yl)methyl)-4-oxo-3,4-dihydropyrrolo[2,1-f][1,2,4]triazin-6-yl)-3-(2,4-dimethylphenyl)urea] | < 5.00
N#Cc1ccc(NC(=O)Nc2cc3c(=O)n(CC4(O)CCN(C(=O)C5CC5)CC4)cnn3c2)cc1 [Compound I-100, 1-(4-cyanophenyl)-3-(3-((1-(cyclopropanecarbonyl)-4-hydroxypiperidin-4-yl)methyl)-4-oxo-3,4-dihydropyrrolo[2,1-f][1,2,4]triazin-6-yl)urea] | < 5.00
COc1cccc(NC(=O)Nc2cc3c(=O)n(CC4(O)CCN(C(=O)C5CC5)CC4)cnn3c2)c1 [Compound I-101, 1-(3-((1-(cyclopropanecarbonyl)-4-hydroxypiperidin-4-yl)methyl)-4-oxo-3,4-dihydropyrrolo[2,1-f][1,2,4]triazin-6-yl)-3-(3-methoxyphenyl)urea] | < 5.00
O=C(Nc1cc2c(=O)n(CC3(O)CCN(C(=O)C4CC4)CC3)cnn2c1)c1ccc(C(F)(F)F)cc1 [Compound I-102, N-(3-((1-(cyclopropanecarbonyl)-4-hydroxypiperidin-4-yl)methyl)-4-oxo-3,4-dihydropyrrolo[2,1-f][1,2,4]triazin-6-yl)-4-(trifluoromethyl)benzamide] | < 5.00
O=C(Cc1c(Cl)cccc1Cl)Nc1cc2c(=O)n(CC3(O)CCN(C(=O)C4CC4)CC3)cnn2c1 [Compound I-103, N-(3-((1-(cyclopropanecarbonyl)-4-hydroxypiperidin-4-yl)methyl)-4-oxo-3,4-dihydropyrrolo[2,1-f][1,2,4]triazin-6-yl)-2-(2,6-dichlorophenyl)acetamide] | < 5.00
O=C(COc1ccc(OC(F)(F)F)cc1)Nc1cc2c(=O)n(CC3(O)CCN(C(=O)C4CC4)CC3)cnn2c1 [Compound I-104, N-(3-((1-(cyclopropanecarbonyl)-4-hydroxypiperidin-4-yl)methyl)-4-oxo-3,4-dihydropyrrolo[2,1-f][1,2,4]triazin-6-yl)-2-(4-(trifluoromethoxy)phenoxy)acetamide] | < 5.00
O=C(COc1ccc(Cl)c(Cl)c1)Nc1cc2c(=O)n(CC3(O)CCN(C(=O)C4CC4)CC3)cnn2c1 [Compound I-105, N-(3-((1-(cyclopropanecarbonyl)-4-hydroxypiperidin-4-yl)methyl)-4-oxo-3,4-dihydropyrrolo[2,1-f][1,2,4]triazin-6-yl)-2-(3,4-dichlorophenoxy)acetamide] | < 5.00
O=C(COc1cccc(Cl)c1Cl)Nc1cc2c(=O)n(CC3(O)CCN(C(=O)C4CC4)CC3)cnn2c1 [Compound I-106, N-(3-((1-(cyclopropanecarbonyl)-4-hydroxypiperidin-4-yl)methyl)-4-oxo-3,4-dihydropyrrolo[2,1-f][1,2,4]triazin-6-yl)-2-(2,3-dichlorophenoxy)acetamide] | 5.00 to 6.00
Cc1ccc(C(=O)Nc2cc3c(=O)n(CC4(O)CCN(C(=O)C5CC5)CC4)cnn3c2)cc1C [Compound I-107, N-(3-((1-(cyclopropanecarbonyl)-4-hydroxypiperidin-4-yl)methyl)-4-oxo-3,4-dihydropyrrolo[2,1-f][1,2,4]triazin-6-yl)-3,4-dimethylbenzamide] | 5.00 to 6.00
Cc1ccc(C(=O)Nc2cc3c(=O)n(CC4(O)CCN(C(=O)C5CC5)CC4)cnn3c2)cc1Cl [Compound I-108, 3-chloro-N-(3-((1-(cyclopropanecarbonyl)-4-hydroxypiperidin-4-yl)methyl)-4-oxo-3,4-dihydropyrrolo[2,1-f][1,2,4]triazin-6-yl)-4-methylbenzamide] | < 5.00
Cc1ccc(C)c(C(=O)Nc2cc3c(=O)n(CC4(O)CCN(C(=O)C5CC5)CC4)cnn3c2)c1 [Compound I-109, N-(3-((1-(cyclopropanecarbonyl)-4-hydroxypiperidin-4-yl)methyl)-4-oxo-3,4-dihydropyrrolo[2,1-f][1,2,4]triazin-6-yl)-2,5-dimethylbenzamide] | < 5.00
O=C(Nc1cc2c(=O)n(CC3(O)CCN(C(=O)C4CC4)CC3)cnn2c1)c1ccccc1OC(F)(F)F [Compound I-110, N-(3-((1-(cyclopropanecarbonyl)-4-hydroxypiperidin-4-yl)methyl)-4-oxo-3,4-dihydropyrrolo[2,1-f][1,2,4]triazin-6-yl)-2-(trifluoromethoxy)benzamide] | < 5.00
O=C(Nc1cc2c(=O)n(CC3(O)CCN(C(=O)C4CC4)CC3)cnn2c1)c1ccc(Cl)cc1Cl [Compound I-111, 2,4-dichloro-N-(3-((1-(cyclopropanecarbonyl)-4-hydroxypiperidin-4-yl)methyl)-4-oxo-3,4-dihydropyrrolo[2,1-f][1,2,4]triazin-6-yl)benzamide] | < 5.00
O=C(Nc1cc2c(=O)n(CC3(O)CCN(C(=O)C4CC4)CC3)cnn2c1)c1csc(-c2ccccc2)n1 [Compound I-112, N-(3-((1-(cyclopropanecarbonyl)-4-hydroxypiperidin-4-yl)methyl)-4-oxo-3,4-dihydropyrrolo[2,1-f][1,2,4]triazin-6-yl)-2-phenylthiazole-4-carboxamide] | 5.00 to 6.00
CC(CC(=O)Nc1cc2c(=O)n(CC3(O)CCN(C(=O)C4CC4)CC3)cnn2c1)c1ccc(Cl)cc1 (stereo not shown) [Compound I-113, 3-(4-chlorophenyl)-N-(3-((1-(cyclopropanecarbonyl)-4-hydroxypiperidin-4-yl)methyl)-4-oxo-3,4-dihydropyrrolo[2,1-f][1,2,4]triazin-6-yl)butanamide] | < 5.00
C=C(C)C(=O)Nc1ccccc1-c1ccc(C(=O)N2CCC(O)(Cn3cnn4cccc4c3=O)CC2)cc1 [Compound I-114, N-(4′-(4-hydroxy-4-((4-oxopyrrolo[2,1-f][1,2,4]triazin-3(4H)-yl)methyl)piperidine-1-carbonyl)-[1,1′-biphenyl]-2-yl)methacrylamide] | 5.00 to 6.00
O=C(c1ccccc1)N1CCC(O)(Cn2cnn3c(-c4ccccc4)ncc3c2=O)CC1 [Compound I-115, 3-((1-benzoyl-4-hydroxypiperidin-4-yl)methyl)-7-phenylimidazo[5,1-f][1,2,4]triazin-4(3H)-one] | 5.00 to 6.00
